Source: patent US20260138949A1, “NOVEL COMPOUND AS PHOSPHOLIPASE D INHIBITOR AND USE THEREOF” (UIF (UNIVERSITY INDUSTRY FOUNDATION), YONSEI UNIVERSITY, priority 2022, published 2026)

Test system: phospholipase D1
Assay: PLD activity in HCT116 cells ([3H]phosphatidylbutanol, TLC)
Format: cell-based, human
Conditions: compound 10 μM, cells without the compound = 100%
Description: To evaluate the inhibitory effect of the compounds according to the present invention on phospholipase D1 activity, experiments were conducted as follows.
For the analysis of PLD activity in cells, human colon cancer cell line (HCT116) was cultured in a 6-well plate at 37° C. for 24 hours, washed twice with phosphate-buffered saline (PBS), and then replaced with medium containing [^3H]myristate and cultured for 24 hours. After the culture, the cells were washed three times with PBS, treated with 1-butanol, and the drug was added to a final concentration of 10 μM. The cells were trypsinized and suspended, and the amount of [^3H]phosphatidylbutanol produced in the cell suspension was measured and evaluated for PLD activity using thin layer chromatography (TLC), and the results are shown in Table 1 below.
The Remaining activity % at 10 μM in Table 1 is calculated by setting the amount of [^3H]phosphatidylbutanol produced in cells without the compound as 100% and calculating the amount of [^3H]phosphatidylbutanol produced in cells treated with the compound as a percentage. Therefore, the lower the value of Remaining activity %, the higher the PLD inhibitory activity.

Structure (SMILES)	Remaining activity % at 10 μM (10 µM) [%]	Remaining activity % at 10 μM
O=C(NNc1ccc(Cl)c(Cl)c1)c1cc2ccccc2[nH]1 [Example 1-89, N′-(3,4-dichlorophenyl)-1H-indole-2-carbohydrazide]	83.22	–
O=C(Nc1cccc(F)c1)c1cc2cc(F)ccc2[nH]1 [Example 1-98, 5-fluoro-N-(3-fluorophenyl)-1H-indole-2-carboxamide]	–	76.66%
O=C(Cc1c[nH]c2ccccc12)Nc1ccc(F)cc1 [Example 1-14, N-(4-fluorophenyl)-2-(1H-indol-3-yl)acetamide]	–	not active
O=C(Nc1cc(C(F)(F)F)cc(C(F)(F)F)c1)c1cc2cc(C(F)(F)F)ccc2[nH]1 [Example 1-102, N-(3,5-bis(trifluoromethyl)phenyl)-5-(trifluoromethyl)-1H-indole-2-carboxamide]	–	35.11%
COc1ccc(NC(=O)c2c[nH]c3ccccc23)cc1OC [Example 1-3, N-(3,4-dimethoxyphenyl)-1H-indole-3-carboxamide]	–	62.73%
O=C(CCc1c[nH]c2ccccc12)Nc1ccc(F)cc1 [Example 1-63, N-(4-fluorophenyl)-3-(1H-indol-3-yl)propanamide]	–	not active
O=C(Nc1ccc(O)c(O)c1)c1cc2ccccc2[nH]1 [Example 1-109, N-(3,4-dihydroxyphenyl)-1H-indole-2-carboxamide]	–	not active
O=C(Cc1c[nH]c2ccccc12)NNc1ccc(Br)cc1 [Example 1-55, N′-(4-bromophenyl)-2-(1H-indol-3-yl)acetohydrazide]	–	77.89%
O=C(Cc1c[nH]c2ccccc12)OCc1ccc([N+](=O)[O-])cc1 [Example 1-115, 4-nitrobenzyl 2-(1H-indol-3-yl)acetate]	–	55.24%
COc1ccc(CNC(=O)CCCc2c[nH]c3ccccc23)cc1 [Example 1-81, 4-(1H-indol-3-yl)-N-(4-methoxybenzyl)butanamide]	–	59.84%
O=C(CCc1c[nH]c2ccccc12)Nc1ccc(Br)cc1 [Example 1-65, N-(4-bromophenyl)-3-(1H-indol-3-yl)propanamide]	–	not active
O=C(Cc1c[nH]c2ccccc12)Nc1cccc(O)c1 [Example 1-8, N-(3-hydroxyphenyl)-2-(1H-indol-3-yl)acetamide]	–	65.7%
Cc1cc(C)cc(NC(=O)c2cc3cc(F)ccc3[nH]2)c1 [Example 1-103, N-(3,5-dimethylphenyl)-5-fluoro-1H-indole-2-carboxamide]	–	75.43%
O=C(Cc1c[nH]c2ccccc12)Nc1ccc(Br)cn1 [Example 1-21, N-(5-bromopyridin-2-yl)-2-(1H-indol-3-yl)acetamide]	–	46.59%
O=C(NNc1ccc(Cl)c(Cl)c1)c1cc2ccccc2[nH]1 [Example 1-6, N′-(3,4-dichlorophenyl)-1H-indole-2-carbohydrazide]	86.59	–
O=C(Nc1ccc(Cl)c([N+](=O)[O-])c1)c1c[nH]c2ccccc12 [Example 1-1, N-(4-chloro-3-nitrophenyl)-1H-indole-3-carboxamide]	–	86.43%
O=C(Cc1c[nH]c2ccccc12)Nc1cccc(F)c1 [Example 1-13, N-(3-fluorophenyl)-2-(1H-indol-3-yl)acetamide]	–	30.28%

Structure (SMILES)	Remaining activity % at 10 μM (10 µM) [%]	Remaining activity % at 10 μM
O=C(CCc1c[nH]c2ccccc12)Nc1cccc(Br)c1 [Example 1-64, N-(3-bromophenyl)-3-(1H-indol-3-yl)propanamide]	–	not active
O=C(NCc1ccc(O)c(O)c1)c1cc2cc(F)ccc2[nH]1 [Example 1-111, N-(3,4-dihydroxybenzyl)-5-fluoro-1H-indole-2-carboxamide]	–	54.41%
O=C(Cc1c[nH]c2ccccc12)NNc1ccc(Cl)c(Cl)c1 [Example 1-54, N′-(3,4-dichlorophenyl)-2-(1H-indol-3-yl)acetohydrazide]	–	not active
O=C(Nc1cc(C(F)(F)F)cc(C(F)(F)F)c1)c1cc2cc(Cl)ccc2[nH]1 [Example 1-99, N-(3,5-bis(trifluoromethyl)phenyl)-5-chloro-1H-indole-2-carboxamide]	–	not active
O=C(Nc1ccc(F)cc1)c1cc2ccccc2[nH]1 [Example 1-83, N-(4-fluorophenyl)-1H-indole-2-carboxamide]	–	not active
Cn1c(C(=O)Nc2cc(C(F)(F)F)cc(C(F)(F)F)c2)cc2cc(F)c(F)cc21 [Example 1-114, N-(3,5-bis(trifluoromethyl)phenyl)-5,6-difluoro-1-methyl-1H-indole-2-carboxamide]	–	48.24%
O=C(Cc1c[nH]c2ccccc12)NCc1ccc(Cl)cc1 [Example 1-49, N-(4-chlorobenzyl)-2-(1H-indol-3-yl)acetamide]	–	59.74%
C#Cc1ccc(NC(=O)Cc2c[nH]c3ccccc23)cc1 [Example 1-31, N-(4-ethynylphenyl)-2-(1H-indol-3-yl)acetamide]	–	not active
O=C(Cc1c[nH]c2ccccc12)NNc1ccc(Cl)cc1 [Example 1-53, N′-(4-chlorophenyl)-2-(1H-indol-3-yl)acetohydrazide]	–	not active
O=C(Cc1c[nH]c2ccccc12)NCc1cccnc1 [Example 1-57, 2-(1H-indol-3-yl)-N-(pyridin-3-ylmethyl)acetamide]	–	not active
O=C(Cc1c[nH]c2ccccc12)Nc1cccc([N+](=O)[O-])c1 [Example 1-30, 2-(1H-indol-3-yl)-N-(3-nitrophenyl)acetamide]	–	not active
COc1cc(NC(=O)c2cc3cc(F)ccc3[nH]2)cc(OC)c1 [Example 1-96, N-(3,5-dimethoxyphenyl)-5-fluoro-1H-indole-2-carboxamide]	–	98.38%
O=C(CCc1c[nH]c2ccccc12)Nc1cc(C(F)(F)F)cc(C(F)(F)F)c1 [Example 1-67, N-(3,5-bis(trifluoromethyl)phenyl)-3-(1H-indol-3-yl)propanamide]	–	29.17%
O=C(Cc1c[nH]c2ccccc12)NCc1ccncc1 [Example 1-58, 2-(1H-indol-3-yl)-N-(pyridin-4-ylmethyl)acetamide]	–	not active
O=C(Nc1ccc(F)cc1)c1cc2cc(F)ccc2[nH]1 [Example 1-90, 5-fluoro-N-(4-fluorophenyl)-1H-indole-2-carboxamide]	–	48.64%
O=C(Cc1c[nH]c2ccccc12)Nc1ccc(O)c(O)c1 [Example 1-106, N-(3,4-dihydroxyphenyl)-2-(1H-indol-3-yl)acetamide]	–	62.00%
COc1ccc(NC(=O)CCc2c[nH]c3ccccc23)cc1OC [Example 1-70, N-(3,4-dimethoxyphenyl)-3-(1H-indol-3-yl)propanamide]	–	not active
